How the values were obtained:
[1] = biological target: T1, human NaV 1.2 (h NaV 1.2) (Homo sapiens, UniProt Q99250); experiment: Modulation of late sodium current (INaL), PatchXpress electrophysiology, HEK-293 cells expressing hNaV1.2; format: cell-based; settings: HEK293, read-out: NaV 1.2 Assay Data: percent inhibition of INaL at hNaV1.2
T1 construct: expressed in transfected cells; host or cells: HEK-293

[2] = biological target: T2, hNaV1.8-WT (Homo sapiens, UniProt Q9Y5Y9); experiment: Voltage step activated sodium current (Peak INa), PatchXpress, HEK-293; format: cell-based; settings: HEK293; percent inhibition measured at 1 μM; step to 0 mV from half-inactivation holding potential
T2 construct: expressed in transfected cells; host or cells: HEK-293
Method: (§1) Functional characterization of exemplary compounds to modulate INa expressed by various human isoforms and disease-causing mutant voltage-gated sodium channels was accomplished using the PatchXpress high throughput electrophysiology platform (Molecular Devices, Sunnyvale, Calif.). HEK-293 cells expressing a recombinant, human NaV1.X sodium channel (either hNaV1.6-WT, hNaV1.6-R223G, hNaV1.6-N984K, hNaV1.6-N1768D, hNaV1.1-WT, hNaV1.2-WT, hNaV1.5-WT, hNaV1.7-WT, or hNaV1.8-WT) were grown in DMEM/high-glucose Dulbecco's modified, 10% FBS, 2 mM sodium pyruvate, 10 mM HEPES and 400 μg/mL G418. Cells were grown to 50%-80% confluency prior to harvesting. Trypsinized cells were washed, allowed to recover for 1 hour and then resuspended in extracellular recording solution at a concentration of 1×10^6 cells/ml. The onboard liquid handling facility of the PatchXpress was used for dispensing cells and applying test compounds. INa amplitude and stability were determined by analyzing the peak current amplitude.
(§2) Peak INa was evoked by depolarizing steps to 0 mV for 20 ms from a holding potential which evoked half-inactivation (e.g., −60 mV) at a frequency of 0.1 Hz. The voltage of half-inactivation was determined for each cell using a 5 sec prepulse to membrane potentials between −120 mV and −20 mV followed immediately by a voltage step to a fully activating membrane voltage (e.g., 0 mV). Following steady state block with exemplary compounds (e.g., as described herein), the degree of inhibition was measured using the average of three consecutive voltage steps. Percent steady-state inhibition of INa was calculated as: [(INa_compound)/(INa_control)]*100, where INa_compound and INa_control represent INa recorded in the presence or absence of compound, respectively.
(§3) In this table, “A” indicates inhibition between less than 0% to 50% and “B” indicates inhibition of greater than 50% and N/A indicates the compound was not tested.

[3] = biological target: T3, hNaV1.5-WT (Homo sapiens, UniProt Q14524); experiment: as above; format: cell-based; settings: HEK293; percent inhibition measured at 1 μM; step to 0 mV from half-inactivation holding potential
T3 construct: expressed in transfected cells; host or cells: HEK-293
Method: as §1, §2, §3

[4] = biological target: T4, hNaV1.2-WT (Homo sapiens, UniProt Q99250); experiment: as above; format: cell-based; settings: percent inhibition measured at 1 μM; step to 0 mV from half-inactivation holding potential
T4 construct: expressed in transfected cells; host or cells: HEK-293
T4 sequence (Q99250 whole entry): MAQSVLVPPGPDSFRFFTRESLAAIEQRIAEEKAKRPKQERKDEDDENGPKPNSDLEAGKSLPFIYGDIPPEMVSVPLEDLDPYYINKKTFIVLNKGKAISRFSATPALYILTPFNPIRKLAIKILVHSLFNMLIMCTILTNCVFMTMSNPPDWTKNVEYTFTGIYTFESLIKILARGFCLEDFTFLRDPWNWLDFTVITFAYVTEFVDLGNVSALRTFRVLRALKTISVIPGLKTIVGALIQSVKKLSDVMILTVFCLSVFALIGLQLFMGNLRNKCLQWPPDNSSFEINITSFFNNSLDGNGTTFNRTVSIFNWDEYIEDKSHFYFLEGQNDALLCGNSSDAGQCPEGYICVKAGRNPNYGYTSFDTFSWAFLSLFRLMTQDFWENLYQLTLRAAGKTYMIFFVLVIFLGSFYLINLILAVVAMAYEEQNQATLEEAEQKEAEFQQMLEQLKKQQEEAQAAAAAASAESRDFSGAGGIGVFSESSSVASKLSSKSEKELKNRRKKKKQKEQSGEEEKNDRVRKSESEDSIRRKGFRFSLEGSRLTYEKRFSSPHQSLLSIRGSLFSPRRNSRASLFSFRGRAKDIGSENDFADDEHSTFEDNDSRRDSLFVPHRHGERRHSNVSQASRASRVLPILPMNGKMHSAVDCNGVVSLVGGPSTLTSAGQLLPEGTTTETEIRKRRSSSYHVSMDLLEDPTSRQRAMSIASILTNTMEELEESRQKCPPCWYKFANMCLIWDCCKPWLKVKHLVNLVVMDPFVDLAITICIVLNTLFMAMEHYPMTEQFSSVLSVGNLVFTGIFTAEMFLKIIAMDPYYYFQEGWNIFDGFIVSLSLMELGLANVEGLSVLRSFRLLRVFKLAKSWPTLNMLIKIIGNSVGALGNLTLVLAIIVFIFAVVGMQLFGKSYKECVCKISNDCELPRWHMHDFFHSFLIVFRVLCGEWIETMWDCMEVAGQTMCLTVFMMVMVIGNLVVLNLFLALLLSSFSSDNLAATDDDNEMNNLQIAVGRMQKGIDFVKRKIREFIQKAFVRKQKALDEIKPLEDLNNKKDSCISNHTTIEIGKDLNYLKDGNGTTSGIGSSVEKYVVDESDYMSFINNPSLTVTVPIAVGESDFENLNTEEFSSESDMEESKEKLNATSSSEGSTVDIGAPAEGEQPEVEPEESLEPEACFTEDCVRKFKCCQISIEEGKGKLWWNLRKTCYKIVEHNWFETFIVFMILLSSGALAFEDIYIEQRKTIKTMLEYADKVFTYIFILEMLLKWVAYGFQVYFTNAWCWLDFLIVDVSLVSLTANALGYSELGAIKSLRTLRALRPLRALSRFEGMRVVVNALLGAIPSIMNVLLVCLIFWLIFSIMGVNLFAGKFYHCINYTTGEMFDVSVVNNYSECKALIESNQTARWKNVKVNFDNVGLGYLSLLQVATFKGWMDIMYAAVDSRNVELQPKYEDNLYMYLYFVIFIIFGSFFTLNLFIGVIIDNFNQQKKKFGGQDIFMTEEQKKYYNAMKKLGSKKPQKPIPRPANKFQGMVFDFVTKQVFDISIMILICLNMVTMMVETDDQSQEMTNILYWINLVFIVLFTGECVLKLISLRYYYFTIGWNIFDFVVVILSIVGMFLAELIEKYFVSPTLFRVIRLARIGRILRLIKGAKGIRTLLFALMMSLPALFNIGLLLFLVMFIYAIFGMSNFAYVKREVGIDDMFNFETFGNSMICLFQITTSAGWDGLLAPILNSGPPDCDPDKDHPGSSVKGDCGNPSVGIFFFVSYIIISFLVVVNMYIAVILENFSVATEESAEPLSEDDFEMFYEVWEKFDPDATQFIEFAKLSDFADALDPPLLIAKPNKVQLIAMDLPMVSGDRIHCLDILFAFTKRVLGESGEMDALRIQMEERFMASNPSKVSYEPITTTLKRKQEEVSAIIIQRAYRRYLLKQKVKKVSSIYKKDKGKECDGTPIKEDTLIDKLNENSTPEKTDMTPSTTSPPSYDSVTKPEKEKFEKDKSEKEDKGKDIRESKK
Method: as §1, §2, §3

[5] = biological target: T5, hNaV1.7-WT (Homo sapiens, UniProt Q15858); experiment: as above; format: cell-based; settings: HEK293; percent inhibition measured at 1 μM; step to 0 mV from half-inactivation holding potential
T5 construct: expressed in transfected cells; host or cells: HEK-293
Method: as §1, §2, §3

[6] = biological target: T6, hNaV1.1-WT (Homo sapiens, UniProt P35498); experiment: as above; format: cell-based; settings: percent inhibition measured at 1 μM; step to 0 mV from half-inactivation holding potential
T6 construct: expressed in transfected cells; host or cells: HEK-293
Method: as §1, §2, §3

[7] = biological target: T7, hNaV1.6-WT (Homo sapiens, UniProt Q9UQD0); experiment: as above; format: cell-based; settings: HEK293; percent inhibition measured at 1 μM; step to 0 mV from half-inactivation holding potential
T7 construct: expressed in transfected cells; host or cells: HEK-293
T7 sequence (Q9UQD0 whole entry): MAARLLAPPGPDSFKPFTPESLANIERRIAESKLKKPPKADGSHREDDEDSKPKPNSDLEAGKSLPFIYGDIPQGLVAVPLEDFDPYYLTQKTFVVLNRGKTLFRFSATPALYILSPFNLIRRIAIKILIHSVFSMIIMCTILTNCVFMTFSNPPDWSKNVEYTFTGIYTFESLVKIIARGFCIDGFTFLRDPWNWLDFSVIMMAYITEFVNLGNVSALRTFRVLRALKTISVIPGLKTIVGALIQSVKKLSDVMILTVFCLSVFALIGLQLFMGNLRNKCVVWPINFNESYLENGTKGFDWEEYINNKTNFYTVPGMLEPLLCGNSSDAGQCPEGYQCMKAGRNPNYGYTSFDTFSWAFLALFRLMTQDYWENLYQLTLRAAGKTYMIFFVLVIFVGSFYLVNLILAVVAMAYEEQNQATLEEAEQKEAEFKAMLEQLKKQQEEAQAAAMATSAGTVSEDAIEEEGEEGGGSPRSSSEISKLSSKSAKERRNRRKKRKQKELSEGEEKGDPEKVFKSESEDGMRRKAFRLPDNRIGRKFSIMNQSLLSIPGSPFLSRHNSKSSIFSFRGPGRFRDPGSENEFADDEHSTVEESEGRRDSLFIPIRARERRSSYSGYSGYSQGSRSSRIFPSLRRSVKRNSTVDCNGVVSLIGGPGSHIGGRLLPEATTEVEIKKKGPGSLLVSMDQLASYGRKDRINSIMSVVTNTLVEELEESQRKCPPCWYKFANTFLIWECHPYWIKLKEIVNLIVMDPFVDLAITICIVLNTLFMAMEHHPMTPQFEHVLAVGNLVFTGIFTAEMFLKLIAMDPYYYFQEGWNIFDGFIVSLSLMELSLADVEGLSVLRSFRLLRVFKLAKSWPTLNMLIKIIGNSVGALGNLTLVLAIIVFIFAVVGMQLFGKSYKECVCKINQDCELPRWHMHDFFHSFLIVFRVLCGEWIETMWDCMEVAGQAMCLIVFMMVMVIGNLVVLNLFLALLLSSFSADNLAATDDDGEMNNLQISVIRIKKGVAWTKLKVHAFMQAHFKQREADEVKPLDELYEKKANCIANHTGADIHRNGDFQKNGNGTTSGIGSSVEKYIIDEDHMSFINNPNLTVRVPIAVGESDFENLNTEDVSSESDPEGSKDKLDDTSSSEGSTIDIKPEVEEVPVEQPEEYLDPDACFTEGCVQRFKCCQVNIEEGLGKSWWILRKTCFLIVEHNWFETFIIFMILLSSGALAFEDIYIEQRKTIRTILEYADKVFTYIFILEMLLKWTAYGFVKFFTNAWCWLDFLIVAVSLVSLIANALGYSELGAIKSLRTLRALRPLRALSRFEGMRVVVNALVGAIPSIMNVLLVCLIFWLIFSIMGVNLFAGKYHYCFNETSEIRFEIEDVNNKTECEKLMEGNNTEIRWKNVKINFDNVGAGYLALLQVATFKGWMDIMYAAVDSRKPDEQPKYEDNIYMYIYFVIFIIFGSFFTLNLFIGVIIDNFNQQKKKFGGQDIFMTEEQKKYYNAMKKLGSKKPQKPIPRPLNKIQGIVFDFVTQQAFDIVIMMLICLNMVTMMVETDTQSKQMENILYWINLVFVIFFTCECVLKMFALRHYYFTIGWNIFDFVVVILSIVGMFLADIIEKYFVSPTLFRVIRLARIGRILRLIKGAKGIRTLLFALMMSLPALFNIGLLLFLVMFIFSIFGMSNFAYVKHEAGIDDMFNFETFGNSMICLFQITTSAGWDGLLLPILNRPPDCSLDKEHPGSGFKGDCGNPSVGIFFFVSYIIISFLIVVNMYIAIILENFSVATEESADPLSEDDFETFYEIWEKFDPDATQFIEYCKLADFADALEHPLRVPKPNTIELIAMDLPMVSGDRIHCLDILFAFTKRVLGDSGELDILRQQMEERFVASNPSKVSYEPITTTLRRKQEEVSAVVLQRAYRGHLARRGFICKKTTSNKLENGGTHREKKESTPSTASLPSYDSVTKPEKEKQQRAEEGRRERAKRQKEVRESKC
Method: as §1, §2, §3

[8] = biological target: T8, hNaV1.6-R223G (Homo sapiens, UniProt Q9UQD0, R223G); experiment: Voltage ramp activated sodium current (Ramp INa), PatchXpress, HEK-293; format: cell-based; settings: HEK293; percent inhibition of enhanced ramp current at 1 μM; +600 mv/sec ramp from −100 mV to +20 mV
T8 construct: expressed in transfected cells; host or cells: HEK-293
T8 sequence (Q9UQD0 whole entry R223G): as the sequence (Q9UQD0 whole entry) above, with R223G counted along it
Method: as §1
(§4) The Nav1.6 mutant channels (hNaV1.6-R223G, hNaV1.6-N984K, hNaV1.6-N1768D) express an enhanced sodium current in response to a ramp voltage depolarization when compared to the wild-type hNaV1.6-WT. This enhanced, depolarizing ramp current is thought to contribute to enhanced neuronal excitability. The degree of block with exemplary compounds (e.g., as described herein) was measured using a +600 mv/sec voltage ramp from −100 mV to +20 mV. The ramp current was defined as the area of the current measured between −55 mV and +15 mV. Following steady state block with exemplary compounds (e.g., as described herein) at 1 μM, a Na^+ free solution containing an impermeant cation (e.g., Choline or NMDG) was added for determination of the baseline current level for offline subtraction. Percent inhibition of enhanced ramp current was calculated as (compound−baseline)/(control−baseline)*100, where control represents the ramp current recorded in the absence of compound. In this table, “A” indicates inhibition between less than 0% to 50% and “B” indicates inhibition of greater than 50% and N/A indicates the compound was not tested.

[9] = biological target: T9, hNaV1.6-N1768D (Homo sapiens, UniProt Q9UQD0, N1768D); experiment: as above; format: cell-based; settings: HEK293; percent inhibition of enhanced ramp current at 1 μM; +600 mv/sec ramp from −100 mV to +20 mV
T9 construct: expressed in transfected cells; host or cells: HEK-293
T9 sequence (Q9UQD0 whole entry N1768D): as the sequence (Q9UQD0 whole entry) above, with N1768D counted along it
Method: as §1, §4

[10] = biological target: T10, hNaV1.6-N984K (Homo sapiens, UniProt Q9UQD0, N984K); experiment: as above; format: cell-based; settings: HEK293; percent inhibition of enhanced ramp current at 1 μM; +600 mv/sec ramp from −100 mV to +20 mV
T10 construct: expressed in transfected cells; host or cells: HEK-293
T10 sequence (Q9UQD0 whole entry N984K): as the sequence (Q9UQD0 whole entry) above, with N984K counted along it
Method: as §1, §4

[11] = biological target: T11, human NaV1.6 (hNaV1.6) (Homo sapiens, UniProt Q9UQD0); experiment: Modulation of late sodium current (INaL), PatchXpress electrophysiology, HEK-293 cells expressing hNaV1.6; format: cell-based; settings: HEK293, late current evoked by 300 nM ATX-II, read-out: NaV 1.6 Assay Data: percent inhibition of INaL at hNaV1.6
T11 construct: expressed in transfected cells; host or cells: HEK-293
T11 sequence (Q9UQD0 whole entry): as the sequence (Q9UQD0 whole entry) above
How it was run: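 PatchXpress automated patch clamp on HEK-293 cells expressing recombinant hNaV1.6; late current enhanced with 300 nM ATX-II. INaL evoked by 200 ms steps to 0 mV from about −120 mV at 0.1 Hz, measured as mean amplitude over the final 20 ms. Percent steady-state inhibition versus control current.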

[12] = test system: Male CD-1 mice; experiment: Maximal Electroshock induced Seizure (MES) assay in mice; format: in vivo, mouse; settings: 35% HPCD, recorded up to 60 seconds post stimulus
Method: Male CD-1 mice, weighing 25-35 g were assessed in the Maximal Electroshock induced Seizure (MES) assay. Briefly, mice were dosed with compound (n=12/group) according to the dosing parameters in Table 20 and the latency to induce tonic hind limb extension following transauricular electrical stimulation (50 Hz, 50 mA, 0.8 sec duration, pulse width of 10 ins) was recorded up to 60 seconds post stimulus.

[13] = 1 mg/kg PO, pre-treatment 30 min
[14] = 3 mg/kg PO, pre-treatment 30 min
[15] = 10 mg/kg PO, pre-treatment 30 min

T1 sequence (Q99250 whole entry): as the sequence (Q99250 whole entry) above

| Compound | inhibition at 1 µM [1] [%] | inhibition at 1 µM [2] [%] | inhibition at 1 µM [3] [%] | hNav1.2 Peak INa [4] | inhibition at 1 µM [5] [%] | hNav1.1 Peak INa [6] | inhibition at 1 µM [7] [%] | inhibition at 1 µM [8] [%] | inhibition at 1 µM [9] [%] | inhibition at 1 µM [10] [%] | inhibition at 1 µM [11] [%] | Mean latency to tonic extension [12, 13] [s] | Mean latency to tonic extension [12, 14] [s] | Mean latency to tonic extension [12, 15] [s] | Mean latency to tonic extension ([12]; 1 mg/kg PO, pre-treatment 120 min) [s] | Mean latency to tonic extension ([12]; 3 mg/kg PO, pre-treatment 120 min) [s] |
| --- | --- | --- | --- | --- | --- | --- | --- | --- | --- | --- | --- | --- | --- | --- | --- | --- |
| COC(F)(F)c1nnc2cnc(-c3ccc(O[C@@H](C)C(F)(F)F)nc3)cn12 [Compound 59, 3-[difluoro(methoxy)methyl]-6-[6-[(1S)-2,2,2-trifluoro-1-methyl-ethoxy]-3-pyridyl]-[1,2,4]triazolo[4,3-a]pyrazine] | > 70 | > 50 | > 50 | B (inhibition of greater than 50%) | > 50 | B (inhibition of greater than 50%) | > 50 | > 50 | > 50 | > 50 | > 70 |  |  |  |  |  |
| COC(F)(F)c1nnc2cnc(-c3ccc(O[C@H](C)C(F)(F)F)nc3)cn12 [Compound 62, 3-[difluoro(methoxy)methyl]-6-[6-[(1R)-2,2,2-trifluoro-1-methyl-ethoxy]-3-pyridyl]-[1,2,4]triazolo[4,3-a]pyrazine] | > 70 | > 50 | > 50 | B (inhibition of greater than 50%) | > 50 | B (inhibition of greater than 50%) | > 50 | < 50 | > 50 | > 50 | > 70 | 17.6 | 46.1 |  |  |  |
| CCOC(F)(F)c1nnc2ccc(-c3cnc(OCC(F)(F)F)c(F)c3)nn12 [Compound 16, 3-[ethoxy(difluoro)methyl]-6-[5-fluoro-6-(2,2,2-trifluoroethoxy)-3-pyridyl]-[1,2,4]triazolo[4,3-b]pyridazine] | > 70 |  |  |  |  |  |  |  |  |  | > 70 |  |  |  |  |  |
| CCOC(F)(F)c1nnc2cnc(-c3cnc(OCC(F)(F)F)c(F)c3)cn12 [Compound 10] | > 70 | > 50 | > 50 | A (inhibition between less than 0% to 50%) | > 50 | B (inhibition of greater than 50%) | > 50 | > 50 | > 50 | < 50 | > 70 | 7.9 | 36.3 | 55.2 |  |  |
| CCOC(F)(F)c1nnc2ccc(-c3cnc(OCC(F)(F)F)c(F)c3)cn12 [Compound 3, 3-[ethoxy(difluoro)methyl]-6-[5-fluoro-6-(2,2,2-trifluoroethoxy)-3-pyridyl]-[1,2,4]triazolo[4,3-a]pyridine] |  | > 50 | > 50 |  | > 50 | B (inhibition of greater than 50%) | > 50 | > 50 | > 50 | > 50 | > 70 |  | 60 | 60 |  |  |
| COC(F)(F)c1nnc2cnc(-c3cnc(O[C@@H](C)C(F)(F)F)c(F)c3)cn12 [Compound 6B, 3-[difluoro(methoxy)methyl]-6-[5-fluoro-6-[(1S)-2,2,2-trifluoro-1-methyl-ethoxy]-3-pyridyl]-[1,2,4]triazolo[4,3-a]pyrazine] |  | > 50 | > 50 | B (inhibition of greater than 50%) | > 50 | B (inhibition of greater than 50%) | > 50 | > 50 | > 50 | > 50 | > 70 |  |  |  | 17.3 | 50.5 |
| COC(F)(F)c1nnc2cnc(-c3cnc(OC4(C(F)(F)F)CCC4)c(F)c3)cn12 [Compound 11, 3-[difluoro(methoxy)methyl]-6-[5-fluoro-6-[1-(trifluoromethyl)cyclobutoxy]-3-pyridyl]-[1,2,4]triazolo[4,3-a]pyrazine] |  | > 50 | > 50 |  | > 50 | B (inhibition of greater than 50%) | > 50 | < 50 | > 50 | > 50 | > 70 |  |  |  |  |  |
| COCc1nnc2cnc(-c3cnc(OC(C)(C)C(F)(F)F)c(F)c3)cn12 [Compound 48] |  | > 50 | > 50 |  | > 50 |  | > 50 | < 50 | > 50 | < 50 | > 70 |  | 42.5 | 60 |  |  |
| COC(F)(F)c1nnc2cnc(-c3ccc(OC(C)(C)C(F)(F)F)nc3)cn12 [Compound 56, 3-[difluoro(methoxy)methyl]-6-[6-(2,2,2-trifluoro-1,1-dimethyl-ethoxy)-3-pyridyl]-[1,2,4]triazolo[4,3-a]pyrazine] | > 70 | > 50 | > 50 | B (inhibition of greater than 50%) | > 50 | B (inhibition of greater than 50%) | > 50 | < 50 | > 50 | > 50 | > 70 |  |  |  |  |  |

— patent US11731976B2, “3-(ethoxydifluoromethyl)-6-(5-fluoro-6-(2,2,2-trifluoroethoxy)pyridin-3-yl)-[1,2,4]triazolo[4,3-a]pyridine as an ion channel modulator” (Praxis Precision Medicines, Inc., priority 2018, dated 2023)
